# Experimental data as given in US9522920B2, “Bromodomain inhibitors and uses thereof” (Constellation Pharmaceuticals, Inc., priority 2010, dated 2016).
# Where two headings read alike, the source gives them in different places.
# How the values were obtained:
# BRD4(BD1) = target: T1, BRD4(BD1) (Homo sapiens, UniProt O60885); assay: BRD4 AlphaLisa binding assay (Alphascreen)
# T1 construct: His; made in house
# Protocol: Specifically, in a 384 well ProxiPlate BRD4(BD1) (30 nM final) was combined with peptide (200 nM final) in 40 mM HEPES (pH 7.0), 40 mM NaCl, 1 mM DTT, 0.01% (w/v) BSA, and 0.008% (w/v) Brij-35 either in the presence of DMSO (final 1.2% DMSO) or compound dilution series in DMSO. After 20 minute incubation at room temperature Alpha streptavidin donor beads and AlphaLisa anti-Flag acceptor beads were added to a final concentration of 10 ug/mL each. After three hours equilibration plates were read on an Envision instrument and IC50s calculated using a four parameter non-linear curve fit.
# IL-6 secretion = assay: Cell-based IL-6 quantification assay (ELISA, Mesoscale) in LPS-stimulated THP-1 cells; conditions: read-out: IL6
# Protocol: 100,000 THP-1 cells were seeded in RPMI1640-10% FBS in 96-well plates. LPS (E. Coli Invitrogen) in RPMI-10% FBS at a final concentration of 4 μg/mL was added to the wells and the cells are then incubated in the presence of various concentrations of compounds for 16 h. Plates are spun ([…], 5 min), an aliquot of 25 uL supernatant is transferred in to an ELISA plate (Mesoscale technology, MSD) and the detection of IL-6 is performed using manufacturer's instructions. The amount of cells in each well is assessed using CellTiter-Glo® (Promega). The ratio of ELISA value/CellTiter-Glo value is used to calculate the percent of inhibition of IL-6 secretion.
# MYC mRNA [1] = assay: cMyc RNA quantification assay (QuantiGene) in MV4:11 cells; format: cell-based; conditions: Homo sapiens, MV4-11, 4 h, Table 14, MV4:11 cells, read-out: MYC-MV411
# Protocol: (§1) MV4:11 (AML) or Raji (Burkitt's lymphoma) cells were seeded in a 96-well plate and incubated in the presence of various concentrations of compounds for 4 h. Relative mRNA levels were quantitated by using QuantiGene 2.0 assay (Affymetrix) according to the manufacturer's recommendation. Signals were detected by using an Envision plate reader (Perkin-Elmer). Biological duplicates were averaged and normalized to vehicle (DMSO) control to calculate percent MYC mRNA levels.
# MYC mRNA [2] = assay: cMyc RNA quantification assay (QuantiGene) in Raji cells; format: cell-based; conditions: 4 h
# Protocol: as §1
# [3] = Table 14, BRD4 AlphaLisa Binding Assay, read-out: Alpha screen
# [4] = Homo sapiens, THP-1, 16 h, Table 14, THP-1 cells, LPS, 16 h
# [5] = Table 6, BRD4(BD1) 30 nM, H4-tetraacetyl peptide 200 nM, read-out: BRD4 Alphascreen IC50
# [6] = Homo sapiens, THP-1, 16 h, Table 7, THP-1 cells, LPS 4 μg/mL, 16 h, normalised to CellTiter-Glo
# [7] = Homo sapiens, Table 7, Raji (Burkitt's lymphoma) cells
# [8] = Table 7, THP-1 cells, LPS 4 μg/mL, 16 h, normalised to CellTiter-Glo
# [9] = Table 7, Raji (Burkitt's lymphoma) cells
# [10] = Homo sapiens, Table 14, Raji cells
Structure (SMILES),IC50 (IL-6 secretion; [4]),IC50 (BRD4(BD1); [5]),IC50 (IL-6 secretion; [6]),IC50 (MYC mRNA [2]; [7]),also measured
"COc1ccc2c(c1)C(c1ccc(Cl)cc1)=N[C@@H](CC(N)=O)c1onc(C)c1-2 [Compound 217, 2-((4S)-6-(4-chlorophenyl)-8-methoxy-1-methyl-4H-benzo[c]isoxazolo[4,5-e]azepin-4-yl)acetamide]",< 500 nM,–,–,–,IC50 (BRD4(BD1); [3]): < 500 nM; IC50 (MYC mRNA [1]): < 500 nM
"CC(=O)NC(C[C@@H]1N=C(c2ccc(Cl)cc2)c2ccccc2-c2c(C)noc21)C(F)(F)F (mixture of isomers) [Compound 244, Mixture of N-((2S)-3-((4S)-6-(4-chlorophenyl)-1-methyl-4H-benzo[c]isoxazolo[4,5-e]azepin-4-yl)-1,1,1-trifluoropropan-2-yl)acetamide and N-((2R)-3-((4S)-6-(4-chlorophenyl)-1-methyl-4H-benzo[c]isoxazolo[4,5-e]azepin-4-yl)-1,1,1-trifluoropropan-2-yl)acetamide]",> 1000 nM,–,–,–,IC50 (BRD4(BD1); [3]): > 1000 nM; IC50 (MYC mRNA [1]): > 1000 nM
"Cc1noc2c1-c1nc(N)ccc1C(c1ccc(Cl)cc1)=NC2 [Compound 228, 5-(4-Chlorophenyl)-10-methyl-7H-isoxazolo[5,4-c]pyrido[2,3-e]azepin-2-amine]",> 1000 nM,–,–,–,IC50 (BRD4(BD1); [3]): > 1000 nM; IC50 (MYC mRNA [1]): > 1000 nM
Cc1noc2c1-c1ccccc1C(c1ccc(C(C)(C)O)cc1)=N[C@H]2CC(N)=O [Compound 235],< 500 nM,–,–,–,IC50 (BRD4(BD1); [3]): < 500 nM; IC50 (MYC mRNA [1]): < 500 nM
"COc1ccc2c(n1)C(c1ccc(Cl)cc1)=NCc1onc(C)c1-2 [Compound 242, 6-(4-Chlorophenyl)-8-methoxy-1-methyl-4H-isoxazolo[5,4-c]pyrido[3,2-e]azepine]",> 1000 nM,–,–,–,IC50 (BRD4(BD1); [3]): 500 to 1000 nM; IC50 (MYC mRNA [1]): > 1000 nM
Cc1noc2c1-c1cccc(Cl)c1C(c1ccncc1)=N[C@H]2CC(N)=O [Compound 137],–,< 500 nM,< 500 nM,500 to 1000 nM,–
Cc1noc2c1-c1sc(C)c(C)c1C(c1ccc(N)nc1)=NC2CC(N)=O (stereo not shown) [Compound 102],–,< 500 nM,< 500 nM,< 500 nM,–
Cc1noc2c1-c1ccc(Cl)cc1C(c1ccc(Cl)cc1)=N[C@H]2CC(N)=O [Compound 141],–,< 500 nM,–,–,IC50 (IL-6 secretion; [8]): < 500 nM; IC50 (MYC mRNA [2]; [9]): > 1000 nM
"Cc1noc2c1-c1ccc(-c3ccc(N)nc3)cc1C(c1ccc(F)cc1)=NC21CC1 [Compound 251, 5-(6-(4-Fluorophenyl)-1-methylspiro[benzo[c]isoxazolo[4,5-e]azepine-4,1′-cyclopropan]-8-yl)pyridin-2-amine]",< 500 nM,–,–,–,IC50 (MYC mRNA [1]): < 500 nM
Cc1noc2c1-c1ccccc1C(N1CCOCC1)=N[C@H]2CC(N)=O [Compound 152],–,> 1000 nM,> 1000 nM,> 1000 nM,–
COc1ccc(C2=N[C@@H](CC(N)=O)c3onc(C)c3-c3ccccc32)cc1 [Compound 146],–,< 500 nM,< 500 nM,< 500 nM,–
Cc1noc2c1-c1cccc(Cl)c1C(c1ccc(C#N)cc1)=N[C@H]2CC(N)=O [Compound 140],–,< 500 nM,–,–,IC50 (IL-6 secretion; [8]): < 500 nM; IC50 (MYC mRNA [2]; [9]): < 500 nM
Cc1noc2c1-c1sc(C)c(C)c1C(c1ccccc1)=NC2CC(N)=O (stereo not shown) [Compound 108],–,< 500 nM,< 500 nM,< 500 nM,–
Cc1noc2c1-c1ccccc1C(c1ccc(Cl)cc1)=N[C@H]2CC(=O)NC(C)(C)C [Compound 205],< 500 nM,–,–,–,IC50 (BRD4(BD1); [3]): < 500 nM; IC50 (MYC mRNA [2]; [10]): > 1000 nM
"CCNC(=O)C[C@@H]1N=C(c2ccc(Cl)cc2)c2ccccc2-c2c1noc2C [Compound 163, 2-((4S)-6-(4-chlorophenyl)-1-methyl-4H-benzo[c]isoxazolo[4,3-e]azepin-4-yl)-N-ethylacetamide]",–,< 500 nM,< 500 nM,> 1000 nM,–
Cc1cc(Cl)ccc1C1=NC(CC(N)=O)c2onc(C)c2-c2sc(C)c(C)c21 (stereo not shown) [Compound 112],–,< 500 nM,< 500 nM,< 500 nM,–
"Cc1noc2c1-c1sc(C)c(C)c1C(c1ccc(Cl)cc1)=N[C@H]2Cc1nccs1 [Compound 188, (6S)-4-(4-chlorophenyl)-2,3,9-trimethyl-6-(thiazol-2-ylmethyl)-6H-isoxazolo[5,4-c]thieno[2,3-e]azepine]",–,< 500 nM,< 500 nM,> 1000 nM,–
Cc1cccc2c1C(c1ccc(C(N)=O)cc1)=N[C@@H](CC(N)=O)c1onc(C)c1-2 [Compound 134],–,< 500 nM,–,–,IC50 (IL-6 secretion; [8]): < 500 nM; IC50 (MYC mRNA [2]; [9]): 500 to 1000 nM

Structure (SMILES),IC50 (IL-6 secretion; [4]),IC50 (BRD4(BD1); [5]),IC50 (IL-6 secretion; [6]),IC50 (MYC mRNA [2]; [7]),also measured
Cc1noc2c1-c1ccc(Cl)cc1C(c1ccc(C(F)(F)F)cc1)=N[C@H]2CC(=O)O [Compound 200],> 1000 nM,–,–,–,IC50 (BRD4(BD1); [3]): > 1000 nM; IC50 (MYC mRNA [2]; [10]): > 1000 nM
Cc1cccc2c1C(c1ccncc1)=N[C@@H](CC(N)=O)c1onc(C)c1-2 [Compound 131],–,< 500 nM,–,–,IC50 (IL-6 secretion; [8]): < 500 nM; IC50 (MYC mRNA [2]; [9]): < 500 nM
"CCNC(=O)C[C@@H]1N=C(c2ccc(Cl)cc2)c2ccccc2-c2c(C)noc21 [Compound 159, 2-((4S)-6-(4-chlorophenyl)-1-methyl-4H-benzo[c]isoxazolo[4,5-e]azepin-4-yl)-N-ethylacetamide]",–,< 500 nM,< 500 nM,< 500 nM,–
COCCNC(=O)C[C@@H]1N=C(c2ccc(C#N)cc2)c2ccccc2-c2c(C)noc21 [Compound 150],–,< 500 nM,–,–,IC50 (IL-6 secretion; [8]): < 500 nM; IC50 (MYC mRNA [2]; [9]): < 500 nM
COc1ccc(C2=N[C@@H](CC(N)=O)c3onc(C)c3-c3cccc(C)c32)cc1 [Compound 135],–,< 500 nM,–,–,IC50 (IL-6 secretion; [8]): < 500 nM; IC50 (MYC mRNA [2]; [9]): < 500 nM
CCNC(=O)CC1N=C(c2ccc(C#N)cc2)c2c(sc(C)c2C)-c2c(C)noc21 (stereo not shown) [Compound 113],–,< 500 nM,< 500 nM,< 500 nM,–
Cc1noc2c1-c1sc(C)c(C)c1C(c1ccc(F)cc1)=NC2CC(N)=O (stereo not shown) [Compound 109],–,< 500 nM,< 500 nM,< 500 nM,–
"CCNC(=O)C[C@@H]1N=C(c2ccc(Cl)cc2)c2cc(OC)ccc2-c2c(C)noc21 [Compound 160, 2-((4S)-6-(4-chlorophenyl)-8-methoxy-1-methyl-4H-benzo[c]isoxazolo[4,5-e]azepin-4-yl)-N-ethylacetamide]",–,< 500 nM,< 500 nM,< 500 nM,–
Cc1noc2c1-c1sc(C)c(C)c1C(C1CCCCC1)=NC2CC(N)=O (stereo not shown) [Compound 126],–,< 500 nM,< 500 nM,> 1000 nM,–
Cc1noc2c1-c1ccccc1C(c1ccc(F)cn1)=N[C@H]2CC(N)=O [Compound 196],500 to 1000 nM,–,–,–,IC50 (BRD4(BD1); [3]): > 1000 nM; IC50 (MYC mRNA [2]; [10]): > 1000 nM
Cc1noc2c1-c1sc(C)c(C)c1C(c1ccc(Cl)cn1)=NC2CC(N)=O (stereo not shown) [Compound 103],–,< 500 nM,< 500 nM,< 500 nM,–
Cc1noc2c1-c1sc(C)c(C)c1C(c1cscn1)=N[C@H]2CC(N)=O [Compound 198],< 500 nM,–,–,–,IC50 (BRD4(BD1); [3]): < 500 nM; IC50 (MYC mRNA [2]; [10]): 500 to 1000 nM
"Cc1noc2c1-c1ccc(Cl)cc1C(c1ccc(F)cc1)=NC21CC1 [Compound 250, 8-Chloro-6-(4-fluorophenyl)-1-methylspiro[benzo[c]isoxazolo[4,5-e]azepine-4,1′-cyclopropane]]",> 1000 nM,–,–,–,IC50 (MYC mRNA [1]): > 1000 nM
"Cc1noc2c1-c1ccnc(N)c1C(c1ccc(Cl)cc1)=NC2 [Compound 172, 6-(4-Chlorophenyl)-1-methyl-4H-isoxazolo[5,4-c]pyrido[4,3-e]azepin-7-amine]",–,< 500 nM,–,500 to 1000 nM,"IC50 (IL-6 secretion; Homo sapiens, THP-1, 16 h): < 500 nM"
Cc1noc2c1-c1ccc(Cl)cc1C(c1ccc(C#N)cc1)=N[C@H]2CC(N)=O [Compound 142],–,< 500 nM,–,–,IC50 (IL-6 secretion; [8]): < 500 nM; IC50 (MYC mRNA [2]; [9]): 500 to 1000 nM
COc1cccc(C2=N[C@@H](CC(N)=O)c3onc(C)c3-c3ccccc32)c1 [Compound 147],–,< 500 nM,–,–,IC50 (IL-6 secretion; [8]): < 500 nM; IC50 (MYC mRNA [2]; [9]): 500 to 1000 nM
"CCNc1nccc2c1C(c1ccc(Cl)cc1)=NCc1onc(C)c1-2 [Compound 174, 6-(4-Chlorophenyl)-N-ethyl-1-methyl-4H-isoxazolo[5,4-c]pyrido[4,3-e]azepin-7-amine]",–,< 500 nM,< 500 nM,500 to 1000 nM,–
CCNC(=O)C[C@@H]1N=C(c2ccc(C#N)cc2)c2cc(Cl)ccc2-c2c(C)noc21 [Compound 143],–,< 500 nM,–,–,IC50 (IL-6 secretion; [8]): < 500 nM; IC50 (MYC mRNA [2]; [9]): 500 to 1000 nM
